Source: patent US8247613B2, “Methods and compositions for the synergistic activation of latent HIV” (The J. David Gladstone Institutes, priority 2006, dated 2012)

Key:
[1] = test system: latent HIV expression in J-Lat6.3kRed2 cells; format: cell-based
Description: In a similar experiment, J-Lat6.3kRed2 cells, a modified cell line derived from J-Lat6.3 containing an integrated kB-DsRed2 reporter, was used. J-Lat6.3kRed2 cells were counted and adjusted to 1×10^6 cells/ml. 80 μl aliquots were pipetted in a 96-well u-bottomed plate. Two-fold serial dilutions of 4, 2, and 1 μM trichostatin A (TSA) were made and added to the cells at final concentrations of 400 nM, 200 nM, and 100 nM, respectively. Three-fold serial dilutions of 100, 33, 11, 3.7 μM prostratin were made and added to cells at final concentrations of 10 μM, 3.3 μM, 1.1 μM, and 0.37 μM (0.4 μM in FIG. 1C), respectively. Samples were mixed by pipetting, returned to a 37° C. incubator with 5% CO2 and 90% humidity for 20 hours, HIV-LTR-driven expression of GFP was assessed by flow cytometry as described above.
In order to test a possible synergistic effect of additional histone deacetylase inhibitors, the effect of valproic acid in combination with prostratin was analyzed. J-Lat6.3kRed2 cells were adjusted to 1×10^6 cells/ml. 80 μl cell aliquots were pipetted in a 96-well u-bottomed plate. […] HIV-LTR-driven expression of GFP was assessed by flow cytometry as described above.

[2] = test system: J-Lat6.3kRed2 cells; assay: Cell viability assay (flow cytometry light scatter), J-Lat6.3kRed2 cells; format: cell-based
Description: (§1) Following stimulation, cells were cultured for 16 hours at 37° C. 90% humidity, 5% CO2. Cells were then analyzed by flow cytometry for viability.
(§2) Cells were scored as viable if they were detected in a characteristically “live” region of light scatter and defraction as measured by flow cytometry.
(§3) As described herein, it is known in the art that high concentrations of prostratin exert some toxic effects on cells. Thus, using the same experimental set-up as described in Example 2, above, cell viability was determined. Cell viability were quantitated as described above. Using J-Lat 6.3 cells and 8.4 T-cells, it was observed that 2 μM prostratin induced cell death in about 50% of the cells. […] In this experiment, cells were incubated with prostratin for about 20 hours, whereas J-Lat 6.3 cells and 8.4 T-cells (in FIGS. 2A and 2B) were incubated with prostratin for 36 hours.
As described in Example 3 for TSA, the effect of valproic acid on blocking prostratin-induced cell death was analyzed using the same experimental set-up as described in Example 4.

[3] = cited from earlier work
[4] = test system: latent HIV expression in J-Lat 9.2 cells; assay: Tat transfection assay, latent HIV-driven GFP expression in J-Lat 9.2 cells; format: cell-based; details: FLAG-Tat transfected J-Lat 9.2 cells (FIG. 6); result similar to Example 6
[5] = test system: latent HIV expression in J-Lat 6.3 cells; assay: Tat transfection assay, latent HIV-driven GFP expression in J-Lat 6.3 cells; format: cell-based; details: for effect on Tat-induced latent HIV-driven expression of GFP: coadministration with Tat (FLAG-Tat transfected cells), 16 hours, J-Lat 6.3 cells (FIG. 5)
Description: 10^6 J-Lat 6.3 cells cultured in RPMI+10% fetal calf serum (FCS) and penicillin/streptomycin were pelleted by centrifugation and resuspended in 0.4 mL RPMI without serum. Cell suspension was mixed with 1 μg of pMACS-kk H2kk expression vector DNA (Miltenyi), and 10 μg of pCMV4 (Andersson et al., 1989, J Biol Chem 264 (14):8222-8229), or 10 μg pCMV4-FLAG-Tat expression vector (gift of Eric Verdin), transferred to a 0.4 cm gap electroporation cuvette (Stratagene), and electroporated at 975 μF, […] for ˜25×10^−3 seconds. Electroporated cells were resuspended in 4 mL medium, and returned to cell culture for 48 hours. 90 μl aliquots of each sample were distributed to U-bottomed 96-well plates and 10 μl of 200 ng/mL TNF-α (Biosource), 10 μl of 1 mM Trichostatin A (Biomol), or 10 μl of RPMI. For 30′-pulse TNF-α stimulation experiments, 10 μl of 200 ng/mL TNF-α was added to 90 μl cell suspension for 30 minutes, cells were transferred to a V-bottomed 96 well plate and centrifuged at […] for 3 minutes. Supernatant was removed and replaced, and procedure was repeated 2×. Cells were resuspended in 100 μl fresh RPMI with 10% serum and penicillin/streptomycin. 16 hours after treatment, cells were pelleted by centrifugation, and resuspended in 50 μl PBS+1:100 dilution of streptavidin-conjugated anti-H2kk antibody. Samples were incubated 10 minutes, diluted in 200 μl PBS, pelleted by centrifugation, and supernatant removed. […] Samples were analyzed by flow cytometry using a Beckton Dickinson FACSCalibur. Cells were analyzed using FlowJo (TreeSoft) flow cytometry analysis software. Live cells were identified by characteristic light scatter and defraction and exclusively analyzed. Cells with APC fluorescence greater that untransfected cells stained with biotin-APC were considered to be H2kk-positive, and to have been successfully transfected. […]

[6] = test system: J-Lat 8.4 T-cells; assay: Cell viability assay (flow cytometry light scatter), J-Lat 8.4 T-cells; format: cell-based
Description: as §1, §2, §3

[7] = test system: latent HIV expression in J-Lat 8.4 T-cells; assay: HIV-LTR-driven expression of GFP (flow cytometry) in J-Lat 8.4 T-cells; format: cell-based; details: 16 hours; for activation of latent HIV expression (GFP-positive cells): J-Lat 8.4 T-cells
Description: (§4) J-Lat 6.3, J-Lat 8.4 T-cells, and J-Lat 9.2 cells are Jurkat T cell lines containing integrated but transcriptionally latent HIV proviruses. These J-Lat cells contain wild-type Tat and TAR and appear to be highly representative of the latently infected cells present in vivo (Williams et al., 2004, J Biol Chem 279(40):42008-42017).
(§5) J-Lat 6.3 T cells, J-Lat 8.4 T-cells and J-Lat 9.2 T cells were obtained from Jordan et al., (Jordan et al., 2003, EMBO J 22(8):1868-1877). J-Lat cells were cultured in RPMI supplemented with 10% fetal calf serum (FCS) and penicillin/streptomycin and L-glutamine described (Williams et al., 2004, J Biol Chem 279(40):42008-42017; Williams et al., 2006, EMBO J 25:139-149).
(§6) The J-Lat T-cell clones used herein are infected with full-length HIV proviruses and contain the Aequorea victoria green fluorescent protein (GFP) gene in lieu of Net thus permitting epifluorescence monitoring of viral transcriptional activity. Under basal conditions, little or no GFP expression is detected; however, transcriptional activation of the latent provirus leads to GFP expression, which can be detected at the single-cell level by flow cytometry. Flow cytometry analysis and FACS was essentially performed as described (Williams et al., 2004, J Biol Chem 279(40):42008-42017).
(§7) Cells were analyzed for GFP-fluorescence and general viability characteristics on a FACSCalibur flow cytometer (Becton Dickinson). Data were analyzed with FlowJo (Treesoft) flow cytometry analysis software.
(§8) J-Lat 6.3 and 8.4 T-cells cultured in RPMI supplemented with 10% fetal calf serum (FCS) and penicillin/streptomycin were counted and adjusted to 1×10^6 cells/ml. 80 μl aliquots of J-Lat 6.3 and 8.4 T-cells, respectively, were pipetted in a 96-well u-bottomed plate. […] Then HIV-LTR-driven expression of GFP was assessed by flow cytometry using a Beckton Dickenson FACScalibur as described above. […] Cells with greater GFP fluorescence than a non-GFP expressing Jurkat control cells were considered GFP-positive.

[8] = test system: latent HIV expression in J-Lat 6.3 cells; assay: HIV-LTR-driven expression of GFP (flow cytometry) in J-Lat 6.3 cells; format: cell-based; details: 16 hours; for activation of latent HIV expression (GFP-positive cells): J-Lat 6.3 cells
Description: as §4, §5, §6, §7, §8

[9] = concentration of >500 nM for more than 2 days; cited from earlier work
[10] = test system: J-Lat 6.3 cells; assay: Cell viability assay (flow cytometry light scatter), J-Lat 6.3 cells; format: cell-based
Description: as §1, §2, §3

[11] = test system: latent HIV expression; details: more potent than prostratin; cited from earlier work
[12] = co-administration of 100 nM TSA with 2 μM prostratin

For `CCCC(CCC)C(=O)O` [valproic acid, 2-propylpentanoic acid], the “potentiation of the effect of prostratin on latent HIV expression” value (“potentiation of the effect of prostratin” below) ([1]; valproic acid 0.3 mM with prostratin 0.37 μM, 18 hours, J-Lat6.3kRed2 cells (FIG. 3)) is given as 6-7 fold, the “effect on prostratin-induced cell death” value ([2]; valproic acid at all tested concentrations (0.3-3 mM), prostratin 10 μM, J-Lat6.3kRed2 cells (FIG. 4)) is given as “blocked prostratin-induced cell death” and the “time of peak serum levels” value ([3]; after a single oral dose) is given as 1 to 4 h. For the same molecule, the serum half-life ([3]; in vivo) was 6 to 16 h and the “absorption after oral administration” value ([3]; oral) was “rapidly absorbed”.

With TNF-α the “activation of expression of latent HIV (GFP) together with Tat” value [4] was “Synergizes with Tat”, the “expression of latent HIV (GFP)” value ([5]; 30-minute pulse treatment of TNF-α, without Tat, J-Lat 6.3 cells) was “weak expression” and the “effect on Tat-induced latent HIV-driven expression of GFP” value [5] was “strongly enhanced”.

In the case of `CC(=O)O[C@@]12C[C@@H](C)[C@@]3(O)[C@@H](C=C(CO)C[C@]4(O)C(=O)C(C)=C[C@@H]34)[C@@H]1C2(C)C` [prostratin, 12-deoxyphorbol 13-acetate], the “prostratin-induced cell death (cells)” value ([6]; 2 μM prostratin, incubated 36 hours (FIG. 2B)) was “about 50%”, the “activation of latent HIV expression (GFP-positive cells)” value (from here on “activation … (GFP-positive cells)”) ([7]; prostratin 2 μM alone) was “induced the activation of latent HIV expression” and the “activation … (GFP-positive cells)” value ([8]; prostratin 2 μM alone) was “induced the activation of latent HIV expression”. The “toxicity (growth arrest and cell death)” value [9] was “substantial growth arrest and cell death” and the “prostratin-induced cell death (cells)” value ([10]; 2 μM prostratin, incubated 36 hours (FIG. 2A)) was “about 50%”.

With `CC(/C=C/C(=O)NO)=C\[C@@H](C)C(=O)c1ccc(N(C)C)cc1` [TSA, [R-(E,E)]-7-[4-(Dimethylamino)phenyl]-N-hydroxy-4,6-dimethyl-7-oxo-2,4-heptadienamide] the “activation of expression of latent HIV (GFP) together with Tat” value [4] was “Synergizes with Tat”, the “effect on prostratin-induced cell death” value [6, 12] was “almost completely inhibited” and the “synergistic effect on activation of latent HIV expression” value ([1]; 370 (400) nM TSA in combination with 0.4 μM prostratin, 20 hours, J-Lat6.3kRed2 cells (FIG. 1C)) was “about 16 fold”. The “effect on the activation of latent HIV expression” value ([1]; TSA 100-400 nM with prostratin 0.37-10 μM, 20 hours, J-Lat6.3kRed2 cells) was “drastic effect”, the “effect on Tat-induced latent HIV-driven expression of GFP” value [5] was “strongly enhanced” and the “effect on prostratin-induced cell death” value ([2]; TSA with prostratin up to 10 μM, about 20 hours, J-Lat6.3kRed2 cells (FIG. 2C)) was “inhibited prostratin-induced cell death”. The “activation … (GFP-positive cells)” value ([7]; TSA 100 nM administered alone) was “no significant effect”, the “potentiation of the effect of prostratin” value ([7]; TSA 100 nM with prostratin 2 μM, J-Lat 8.4 T-cells (FIG. 1B)) was 6-7 fold and the “activation … (GFP-positive cells)” value ([8]; TSA 100 nM administered alone) was “no significant effect”. The “potentiation of the effect of prostratin” value ([8]; TSA 100 nM with prostratin 2 μM, J-Lat 6.3 cells (FIG. 1A)) was 5-6 fold and the “effect on prostratin-induced cell death” value [10, 12] was “almost completely inhibited”.

In the case of `CC1=C[C@H]2[C@@]3(O)[C@H](C)C[C@]4(OC(=O)Cc5ccccc5)C([C@@H]3C=C(CO)C[C@]2(O)C1=O)C4(C)C` (stereo partly shown) [DPP, 12-deoxyphorbol 13-phenylacetate], the “potency relative to prostratin” value [11] is listed as 20-40 fold.
